Test [1] deals with T1, R5 (Williamwhitmania taraxaci, UniProt A0A1G6J2J7).
T1 sequence (A0A1G6J2J7 34-316 limits assumed): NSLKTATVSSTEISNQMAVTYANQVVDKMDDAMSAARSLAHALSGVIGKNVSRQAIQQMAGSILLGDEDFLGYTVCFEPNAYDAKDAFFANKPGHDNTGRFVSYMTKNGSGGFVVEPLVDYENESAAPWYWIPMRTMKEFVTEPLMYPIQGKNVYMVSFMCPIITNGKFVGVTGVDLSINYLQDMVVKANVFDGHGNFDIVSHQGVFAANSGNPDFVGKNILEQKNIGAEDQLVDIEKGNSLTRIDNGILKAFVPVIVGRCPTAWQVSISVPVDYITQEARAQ
In words: ITC. It is filed as binding.

In test [2] the target is T2, R8 (Azospirillum baldaniorum, UniProt A0A9P1JTZ6).
T2 sequence (A0A9P1JTZ6 19-310): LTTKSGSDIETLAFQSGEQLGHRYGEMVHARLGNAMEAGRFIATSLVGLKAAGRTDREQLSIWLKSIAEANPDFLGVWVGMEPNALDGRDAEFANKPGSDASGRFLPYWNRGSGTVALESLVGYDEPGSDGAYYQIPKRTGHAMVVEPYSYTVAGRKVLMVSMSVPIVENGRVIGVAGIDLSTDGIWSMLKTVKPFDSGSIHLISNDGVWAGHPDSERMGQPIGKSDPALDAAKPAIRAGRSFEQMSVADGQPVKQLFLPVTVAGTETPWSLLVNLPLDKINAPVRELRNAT
In words: ITC. Conditions: one binding site model.

In test [3] the target is T3, R7 (Peptoclostridium litorale, UniProt A0A069RI07).
T3 sequence (A0A069RI07 38-318 limits assumed): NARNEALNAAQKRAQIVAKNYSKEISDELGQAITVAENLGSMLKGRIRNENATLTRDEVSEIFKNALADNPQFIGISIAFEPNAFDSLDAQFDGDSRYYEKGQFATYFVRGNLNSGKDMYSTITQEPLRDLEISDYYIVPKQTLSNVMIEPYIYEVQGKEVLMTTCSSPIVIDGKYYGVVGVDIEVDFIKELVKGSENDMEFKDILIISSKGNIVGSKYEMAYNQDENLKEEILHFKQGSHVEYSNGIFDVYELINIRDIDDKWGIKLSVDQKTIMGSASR
In words: ITC. In kind it is binding.

Test [4] concerns the target T4, R1 (Methanosarcina mazei, UniProt Q8PSW1).
T4 sequence (Q8PSW1 32-312): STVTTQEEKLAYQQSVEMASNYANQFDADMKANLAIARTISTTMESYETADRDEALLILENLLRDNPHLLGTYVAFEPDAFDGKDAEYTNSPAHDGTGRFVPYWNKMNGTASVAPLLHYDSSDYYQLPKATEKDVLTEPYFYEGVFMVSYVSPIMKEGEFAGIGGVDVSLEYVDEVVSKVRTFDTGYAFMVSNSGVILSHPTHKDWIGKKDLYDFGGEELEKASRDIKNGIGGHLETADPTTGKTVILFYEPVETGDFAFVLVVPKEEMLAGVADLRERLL
The experiment in a line: ITC. It is filed as binding.

Test [5] has as its target R3. The experiment in a line: ITC. Further details: species or system Desulfovibrio inopinatus. As to conditions: read-out: KD (uM) / Polyamine / Ethylenediamine; one binding site model.
Test [6] addresses R6 (Oleiharenicola lentus, UniProt A0A4Q1C8G9). In words: biochemical.
For test [7], the target named is PacA-LBD (Pectobacterium atrosepticum, UniProt Q6D515). The experiment in a line: biochemical.
Chain of PacA-LBD (Q6D515 1-271): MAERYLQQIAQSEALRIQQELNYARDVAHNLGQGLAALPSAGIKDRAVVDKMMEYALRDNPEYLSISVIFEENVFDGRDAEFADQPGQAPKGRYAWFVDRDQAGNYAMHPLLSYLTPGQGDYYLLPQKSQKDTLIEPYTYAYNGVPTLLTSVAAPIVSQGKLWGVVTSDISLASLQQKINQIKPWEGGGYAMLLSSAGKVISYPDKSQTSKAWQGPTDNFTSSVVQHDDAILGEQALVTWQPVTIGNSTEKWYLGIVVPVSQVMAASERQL

SMILES strings stand for the structures. Where two headings read alike, the source gives them in different places.

Chain of R6 (A0A4Q1C8G9 35-324 limits assumed): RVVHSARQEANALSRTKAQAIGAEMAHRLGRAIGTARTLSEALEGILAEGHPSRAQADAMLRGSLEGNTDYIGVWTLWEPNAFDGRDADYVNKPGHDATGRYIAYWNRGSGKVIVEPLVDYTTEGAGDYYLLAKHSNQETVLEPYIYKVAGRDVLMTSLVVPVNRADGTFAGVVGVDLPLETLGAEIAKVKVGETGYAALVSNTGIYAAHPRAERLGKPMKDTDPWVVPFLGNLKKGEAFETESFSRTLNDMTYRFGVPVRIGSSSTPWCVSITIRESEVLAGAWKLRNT

For `C[N+](C)(C)CCO` [Choline], the Kd came to 3600 ± 100 nM in test [1] and 183 ± 4 µM in test [2] (read-out: KD (uM) / Quaternary amines / Choline).

With `CNC` [Dimethylamine], the Kd in test [3] was determined as 5.3 ± 0.4 µM; in test [2] (read-out: KD (uM) / Methyl-/ethyl-/ethanol amines^* / Dimethylamine), 5.8 ± 1 µM; in test [4], 0.53 ± 0.02 µM.

As to `NCCN` [Ethylenediamine], the Kd in test [3] came to 12.3 ± 1 µM; in test [5], 29.6 ± 3 µM.

`CN` [Methylamine]: the Kd was determined as 16.6 ± 2 µM in test [3], 25.1 ± 3 µM in test [2] (read-out: KD (uM) / Methyl-/ethyl-/ethanol amines^* / Methylamine) and 35.1 ± 3 µM in test [4].

Consider `CN(C)C` [Trimethylamine], for which the Kd in test [6] was determined as 151 ± 4 µM; in test [1], 1200 ± 100 nM; in test [7], 113 ± 6 µM; in test [2] (read-out: KD (uM) / Methyl-/ethyl-/ethanol amines^* / Trimethylamine), 24 ± 4 µM; in test [4], 10 ± 0.4 µM.
